Experimental findings from patent US10858364B2, “Imidazopyrazine inhibitors of Bruton's tyrosine kinase” (Acerta Pharma B.V., priority 2016, dated 2020) are described below.

The structures appear in SMILES notation.

Series [1] deals with T1, BMX (Homo sapiens (Human), UniProt P51813). Nature of the series: DiscoveRx Kd dose response, BMX. It is filed as binding. How it is done: (§1) Kinase profiling was performed with M27 was done at DiscoveRx at a single dose of 1 μM on all available kinases (KINOMEscan). The overall kinase selectivity score is in Table 6. […] Kinases inhibited >65% at 1 μM for M27 were followed up with a dose response at DiscoveRx. The M27 had IC50 values <1 μM for almost the same set of kinases with exception of TXK, but with additional inhibition of BRK (PTK6).
T1 sequence (P51813 whole entry): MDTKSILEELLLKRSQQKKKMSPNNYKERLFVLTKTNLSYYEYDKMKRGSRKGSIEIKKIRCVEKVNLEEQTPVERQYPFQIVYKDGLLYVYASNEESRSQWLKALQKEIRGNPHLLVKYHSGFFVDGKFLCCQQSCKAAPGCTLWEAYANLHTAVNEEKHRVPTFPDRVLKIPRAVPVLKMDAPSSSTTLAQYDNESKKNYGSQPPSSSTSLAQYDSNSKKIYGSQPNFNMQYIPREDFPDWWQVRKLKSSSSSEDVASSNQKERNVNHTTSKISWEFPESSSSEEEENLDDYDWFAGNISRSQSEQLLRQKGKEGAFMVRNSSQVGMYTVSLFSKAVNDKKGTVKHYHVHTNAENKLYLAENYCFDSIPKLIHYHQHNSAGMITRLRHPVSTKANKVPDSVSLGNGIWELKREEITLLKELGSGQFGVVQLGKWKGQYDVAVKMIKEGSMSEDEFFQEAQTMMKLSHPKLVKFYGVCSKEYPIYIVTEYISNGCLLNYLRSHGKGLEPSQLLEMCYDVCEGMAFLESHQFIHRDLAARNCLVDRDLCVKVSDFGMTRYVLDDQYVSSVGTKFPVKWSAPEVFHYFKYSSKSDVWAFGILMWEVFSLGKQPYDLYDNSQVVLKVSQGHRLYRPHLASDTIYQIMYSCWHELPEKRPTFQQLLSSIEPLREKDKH

The target of a further series is BRK (PTK6) (Homo sapiens (Human), UniProt Q13882). Briefly: DiscoveRx Kd dose response, BRK (PTK6). The series is classed as binding. How it is done:
as §1

Series [2] addresses T1, BMX. Briefly: BMX Z'-LYTE kinase assay. It is filed as biochemical. Conditions: 1 h pre-incubation, Km ATP. Here is the method: (§2) BMX, TXK, EGFR, ERBB2, ERBB4, JAK3, BLK kinase activity was measured using the Z′-LYTE assay at Thermo Fisher. A 10-point dose response (final concentration in assay ranged from 10 μM to 0.5 nM in 3-fold dilution per dilution step) was generated with 1 h incubation of the test compound with the kinase prior to initiation of the kinase reaction by the addition of ATP. ATP concentration in the assay was Km ATP for the different kinases. IC50 values are determined by curve fitting of the experimental results at Thermo Fisher.

Another series addresses CYP2B6 (Homo sapiens (Human), UniProt P20813). Briefly: CYP inhibition, CYP2B6. The series is classed as in vitro ADME.
Another series has as its target EGFR (Homo sapiens (Human), UniProt P00533). Nature of the series: EGFR Z'-LYTE kinase assay. It is filed as biochemical. Conditions: 1 h pre-incubation, Km ATP. Here is the method: as §2
A further series concerns the target ERBB4 (Homo sapiens (Human), UniProt Q15303). Nature of the series: ERBB4 Z'-LYTE kinase assay. It is filed as biochemical. Conditions: 1 h pre-incubation, Km ATP. How it is done:
as §2

For the next series, the system named is CYP3A4/5. Briefly: CYP inhibition, CYP3A4/5. The series is classed as in vitro ADME.
The next series addresses TEC (Homo sapiens (Human), UniProt P42680). Nature of the series: TEC LanthaScreen assay. The series is classed as binding. Conditions: 2h incubation. Here is the method:
TEC enzyme activity is measured using the LanthaScreen assay from ThermoFisher as outlined below.
TEC enzyme (LifeTech # PV3269) and Eu-anti-HIS antibody (Invitrogen # PV5596) are mixed and diluted in kinase buffer (50 mM Hepes pH 7.5+10 mM MgCl2+1 mM EGTA+0.01% Brij-35) to 3 and 6 nM, respectively. Final concentration in the assay for enzyme and antibody are 1 and 2 nM, respectively.
Tracer (Kinase Tracer 178, Invitrogen # PV5593) is diluted in Kinase buffer to 3 nM. Final concentration in the assay is 1 nM.
Serial dilutions log 10 from 1 mM to 3.16 nM of test compounds are made in 100% DMSO. The dilutions in DMSO are then diluted 33-fold in Kinase buffer (50 mM Hepes pH 7.5+10 mM MgCl2+1 mM EGTA+0.01% Brij-35).
The assay is performed as follows: 5 μL/well of TEC enzyme and EU-anti-His antibody dilution is mixed with 5 μL/well tracer dilution and 5 μL/well of compound dilution in Kinase buffer. Final compound concentration in the assay ranged from 10 μM to 0.316 nM, with 1% DMSO final concentration in assay. Following a 2h incubation at room the TR-FRET signal at 615 nm and 665 nm is read. The ratio 665/615 was used to calculate values expressed as percentage of the difference in readout (S/N) of the controls with and without Tracer. IC50 values were determined by curve fitting of the experimental results in Dotmatics.
On the technique in general: In TR-FRET formats the signal depends on donor and acceptor labels being close together.

For another series, the target named is ERBB2 (Homo sapiens (Human), UniProt P04626). Nature of the series: DiscoveRx Kd dose response, ERBB2. It is filed as binding. Here is the method: as §1
In a further series the target is TXK (Homo sapiens (Human), UniProt P42681). Nature of the series: DiscoveRx Kd dose response, TXK. It is filed as binding. Here is the method: as §1
Chain of TXK (P42681 whole entry): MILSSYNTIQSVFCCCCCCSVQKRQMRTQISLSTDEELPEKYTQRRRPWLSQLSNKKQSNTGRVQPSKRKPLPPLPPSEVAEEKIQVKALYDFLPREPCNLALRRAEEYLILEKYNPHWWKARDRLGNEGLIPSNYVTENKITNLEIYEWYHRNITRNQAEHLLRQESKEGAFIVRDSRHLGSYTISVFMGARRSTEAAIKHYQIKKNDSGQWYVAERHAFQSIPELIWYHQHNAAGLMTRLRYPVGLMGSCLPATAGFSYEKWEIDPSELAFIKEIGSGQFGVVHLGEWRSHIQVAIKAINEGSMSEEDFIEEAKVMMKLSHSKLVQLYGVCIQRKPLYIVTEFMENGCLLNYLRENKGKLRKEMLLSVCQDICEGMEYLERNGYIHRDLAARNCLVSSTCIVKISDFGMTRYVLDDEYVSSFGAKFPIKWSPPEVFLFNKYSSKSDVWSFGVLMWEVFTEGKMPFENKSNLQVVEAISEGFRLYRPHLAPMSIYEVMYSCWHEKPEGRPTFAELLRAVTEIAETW
For series [3], the system named is all available kinases (KINOMEscan). Nature of the series: KINOMEscan (DiscoveRx scanMAX) profiling, selectivity score. The series is classed as binding. Conditions: single dose of 1 μM. How it is done:
as §1

The next series has as its target ITK (Homo sapiens (Human), UniProt Q08881). Nature of the series: ITK enzyme activity, IMAP assay. It is filed as biochemical. Conditions: 60 min pre-incubation, 5 μM ATP. How it is done: ITK enzyme activity is measured using the IMAP (immobilized metal ion affinity-based fluorescence polarization) assay as outlined below.
ITK enzyme (Millipore #14-660M) is diluted to 0.2 U/mL in KR buffer (10 mM Tris-HCl, 10 mM MgCl2, 0.01% Tween-20, 0.1% NaN3, 1 mM DTT, 2 mM MnCl2, pH 7.5)
Serial dilutions log 10 from 2 mM to 63.2 nM of test compounds are made in 100% DMSO. The dilutions in DMSO are then diluted 50-fold in KR-buffer. Final compound concentration range in the assay ranged from 10 μM to 0.316 nM.
The assay is performed as follows: 5 μL/well of test compound in KR buffer (final DMSO concentration in the assay is 1%) is mixed with 5 μL/well of 0.2 U/mL ITK enzyme (final concentration in the assay is 0.05 U/mL (8.4 nM)). Test compounds and ITK enzyme are pre-incubated 60 minutes at room temperature, before adding 5 μL/well of 200 nM Fluorescin labeled substrate peptide (Blk/Lyntide substrate # R8124, Molecular Devices) in KR-buffer. Final peptide substrate concentration in assay is 50 nM. The kinase assay is started by adding 5 μL/well of 20 μM ATP in KR-buffer (final ATP concentration is 5 μM ATP, Km ATP in ITK IMAP assay). […] IC50 values are determined by curve fitting of the experimental results in Dotmatics.

A further series concerns the target LIMK1 (Homo sapiens (Human), UniProt P53667). Briefly: DiscoveRx Kd dose response, LIMK1. It is filed as binding. Here is the method: as §1
The test system of a further series is CYP3A4. Nature of the series: CYP induction, CYP3A4. It is filed as in vitro ADME.

Broadly, the Kd is the equilibrium constant for the complex coming apart. A word on the IC50: it is the point on the concentration scale where inhibition reaches its midpoint. A high value points to lower potency.

Chain of ITK (Q08881 whole entry): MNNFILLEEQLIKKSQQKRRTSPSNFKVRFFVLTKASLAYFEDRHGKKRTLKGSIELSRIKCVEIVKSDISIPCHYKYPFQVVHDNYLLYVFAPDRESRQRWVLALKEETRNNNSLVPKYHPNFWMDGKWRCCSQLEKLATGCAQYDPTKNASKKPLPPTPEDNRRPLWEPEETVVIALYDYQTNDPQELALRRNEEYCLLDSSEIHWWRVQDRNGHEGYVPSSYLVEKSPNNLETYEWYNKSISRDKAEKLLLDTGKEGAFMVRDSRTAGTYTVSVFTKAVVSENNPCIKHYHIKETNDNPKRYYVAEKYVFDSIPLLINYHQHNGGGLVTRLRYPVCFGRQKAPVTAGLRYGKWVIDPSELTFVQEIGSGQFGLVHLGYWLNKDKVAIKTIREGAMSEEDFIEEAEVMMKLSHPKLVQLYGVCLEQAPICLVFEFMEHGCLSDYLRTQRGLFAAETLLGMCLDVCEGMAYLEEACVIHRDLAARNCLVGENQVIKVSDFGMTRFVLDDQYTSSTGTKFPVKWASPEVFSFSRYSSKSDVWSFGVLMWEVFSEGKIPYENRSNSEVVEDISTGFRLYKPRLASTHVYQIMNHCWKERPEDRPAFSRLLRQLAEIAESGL
Chain of LIMK1 (P53667 whole entry): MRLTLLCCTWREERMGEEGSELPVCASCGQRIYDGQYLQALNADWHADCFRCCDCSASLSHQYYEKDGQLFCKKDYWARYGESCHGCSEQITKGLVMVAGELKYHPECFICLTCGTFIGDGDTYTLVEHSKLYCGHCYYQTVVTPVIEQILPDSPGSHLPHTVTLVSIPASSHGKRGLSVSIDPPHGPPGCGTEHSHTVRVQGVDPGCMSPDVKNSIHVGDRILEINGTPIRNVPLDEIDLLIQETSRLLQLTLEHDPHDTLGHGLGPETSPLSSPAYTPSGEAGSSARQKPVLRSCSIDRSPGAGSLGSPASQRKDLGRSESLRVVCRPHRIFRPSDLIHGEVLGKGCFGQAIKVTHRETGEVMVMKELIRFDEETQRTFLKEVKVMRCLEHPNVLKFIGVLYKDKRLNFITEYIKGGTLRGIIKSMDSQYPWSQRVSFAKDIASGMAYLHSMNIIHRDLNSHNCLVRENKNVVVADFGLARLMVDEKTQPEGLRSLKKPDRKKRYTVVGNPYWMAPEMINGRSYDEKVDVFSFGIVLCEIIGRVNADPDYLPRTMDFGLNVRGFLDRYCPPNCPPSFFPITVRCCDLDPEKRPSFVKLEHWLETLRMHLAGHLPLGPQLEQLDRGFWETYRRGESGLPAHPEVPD
Chain of ERBB4 (Q15303 26-1308): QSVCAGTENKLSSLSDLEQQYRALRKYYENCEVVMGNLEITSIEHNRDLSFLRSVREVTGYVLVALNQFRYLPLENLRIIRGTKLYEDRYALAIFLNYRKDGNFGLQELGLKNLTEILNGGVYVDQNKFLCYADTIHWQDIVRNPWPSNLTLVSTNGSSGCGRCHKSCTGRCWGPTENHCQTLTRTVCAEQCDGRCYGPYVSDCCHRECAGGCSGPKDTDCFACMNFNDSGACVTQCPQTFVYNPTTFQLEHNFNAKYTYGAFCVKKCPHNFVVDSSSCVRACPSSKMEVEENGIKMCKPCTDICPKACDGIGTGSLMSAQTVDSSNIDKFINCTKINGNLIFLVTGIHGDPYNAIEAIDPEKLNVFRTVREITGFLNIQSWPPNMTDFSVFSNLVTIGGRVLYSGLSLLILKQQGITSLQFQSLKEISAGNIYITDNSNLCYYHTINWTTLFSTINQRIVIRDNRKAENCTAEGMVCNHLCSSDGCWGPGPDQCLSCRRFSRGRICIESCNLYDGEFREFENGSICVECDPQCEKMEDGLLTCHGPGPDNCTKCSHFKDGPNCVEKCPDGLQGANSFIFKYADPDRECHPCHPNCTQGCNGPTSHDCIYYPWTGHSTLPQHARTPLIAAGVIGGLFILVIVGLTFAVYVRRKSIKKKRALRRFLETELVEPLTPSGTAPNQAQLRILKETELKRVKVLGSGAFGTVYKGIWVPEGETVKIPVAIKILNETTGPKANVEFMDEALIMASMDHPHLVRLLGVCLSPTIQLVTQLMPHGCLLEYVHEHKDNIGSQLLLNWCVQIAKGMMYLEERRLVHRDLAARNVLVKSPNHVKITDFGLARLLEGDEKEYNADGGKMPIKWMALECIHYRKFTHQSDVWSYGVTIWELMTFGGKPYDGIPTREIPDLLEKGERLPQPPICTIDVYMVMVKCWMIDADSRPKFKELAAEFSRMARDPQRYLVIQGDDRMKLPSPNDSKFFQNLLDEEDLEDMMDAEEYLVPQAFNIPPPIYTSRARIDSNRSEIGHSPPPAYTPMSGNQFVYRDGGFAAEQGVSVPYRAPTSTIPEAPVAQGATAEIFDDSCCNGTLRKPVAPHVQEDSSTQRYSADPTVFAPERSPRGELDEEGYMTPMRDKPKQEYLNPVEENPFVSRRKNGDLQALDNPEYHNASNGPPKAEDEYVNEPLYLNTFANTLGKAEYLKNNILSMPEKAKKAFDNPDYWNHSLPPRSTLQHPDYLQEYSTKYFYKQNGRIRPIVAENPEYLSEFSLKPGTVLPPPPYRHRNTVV
Chain of TEC (P42680 whole entry): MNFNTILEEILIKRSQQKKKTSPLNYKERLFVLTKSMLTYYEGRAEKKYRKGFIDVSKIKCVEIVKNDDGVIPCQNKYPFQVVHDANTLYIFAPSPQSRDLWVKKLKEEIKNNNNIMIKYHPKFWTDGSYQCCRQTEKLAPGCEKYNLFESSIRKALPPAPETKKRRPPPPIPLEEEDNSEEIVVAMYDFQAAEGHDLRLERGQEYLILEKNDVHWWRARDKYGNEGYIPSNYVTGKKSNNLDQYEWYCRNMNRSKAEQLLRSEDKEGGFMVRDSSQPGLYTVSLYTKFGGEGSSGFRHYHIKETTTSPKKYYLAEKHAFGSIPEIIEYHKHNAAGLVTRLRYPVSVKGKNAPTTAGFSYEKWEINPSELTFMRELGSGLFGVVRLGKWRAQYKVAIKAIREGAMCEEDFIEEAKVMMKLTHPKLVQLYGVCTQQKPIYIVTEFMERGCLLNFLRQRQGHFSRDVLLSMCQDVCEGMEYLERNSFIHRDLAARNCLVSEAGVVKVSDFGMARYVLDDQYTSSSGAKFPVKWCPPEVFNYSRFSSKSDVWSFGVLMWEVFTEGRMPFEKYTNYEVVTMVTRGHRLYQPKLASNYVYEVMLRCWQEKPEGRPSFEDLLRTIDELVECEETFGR
Chain of BRK (PTK6) (Q13882 whole entry): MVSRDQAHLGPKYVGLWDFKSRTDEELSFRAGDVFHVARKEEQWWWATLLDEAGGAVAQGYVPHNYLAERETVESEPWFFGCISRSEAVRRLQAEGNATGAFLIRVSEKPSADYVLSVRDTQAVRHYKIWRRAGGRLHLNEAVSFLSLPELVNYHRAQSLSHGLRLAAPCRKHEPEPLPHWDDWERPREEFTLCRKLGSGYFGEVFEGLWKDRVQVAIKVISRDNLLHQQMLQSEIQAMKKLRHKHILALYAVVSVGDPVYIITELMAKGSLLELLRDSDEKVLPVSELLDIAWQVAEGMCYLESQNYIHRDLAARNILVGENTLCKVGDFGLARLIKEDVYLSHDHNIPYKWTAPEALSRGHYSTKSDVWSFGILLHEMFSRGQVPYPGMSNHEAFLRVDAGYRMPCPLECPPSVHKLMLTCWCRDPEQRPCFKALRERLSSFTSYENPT

For `CC#CC(=O)NCCCC(=O)c1nc(-c2ccc(C(=O)Nc3ccccn3)cc2)c2c(N)nccn12` [Formula (I), 4-(8-amino-3-(4-(but-2-ynamido)butanoyl)imidazo[1,5-a]pyrazin-1-yl)-N-(pyridin-2-yl)benzamide], the Kd was 190 nM at BMX [1]; 150 nM at BRK (PTK6); 120 nM on ERBB2; 1100 nM at TXK; 400 nM on LIMK1. For the same compound, the IC50 was 15 ± 2 nM against BMX [2]; over 10000 nM on EGFR; 343 ± 23 nM on ERBB4; 345 ± 34 nM at TEC; over 10000 nM at ITK. For the same compound, at CYP2B6, the CYP2B6 inhibition result is “does not inhibit”. Further, in the series on CYP3A4/5, the CYP3A4/5 inhibition result is given as “does not inhibit”. For the same compound, the “Selectivity Score S(10)” value in series [3] is given as 0.005. Besides, the “Selectivity Score S(35)” value in series [3] is on record as 0.013. In addition, the CYP3A4 induction entry with CYP3A4 is “weak inducer”.
Consider `CC#CC(=O)NCCCC(=O)c1nc(-c2ccc(C(=O)Nc3ccccn3)c(OC)c2)c2c(N)nccn12` [Formula (II), 4-(8-amino-3-(4-(but-2-ynamido)butanoyl)imidazo[1,5-a]pyrazin-1-yl)-2-methoxy-N-(pyridin-2-yl)benzamide], for which the IC50 on ITK was over 10000 nM.
